Literature values, collected in patent US9623004B2, “Administration of a therapeutic amount of genistein to mitigate erectile dysfunction resulting from radiation therapy for prostate cancer only throughout a defined administration period commencing shortly before and concluding after radiation therapy” (Humanetics Corporation, priority 2013, dated 2017).

Columns and labels:
[1] = not given; remark: listed apart in the source

solubility in water: virtually insoluble in water
Structure (SMILES): O=c1c(-c2ccc(O)cc2)coc2cc(O)cc(O)c12 [Genistein, 5,7-dihydroxy-3-(4-hydroxyphenyl)-chromen-4-one]
beneficial effects in other clinical trials [1]: no beneficial effects
